Activity calls are given as the source filed them. The rule behind the calls is not given here.
How the values were obtained:
[1] = tested on: SNU-398; assay: Growth inhibition of human SNU398 cells after 48 hrs; type: functional; details: SNU-398, 48 h
[2] = tested on: T47D; assay: Growth inhibition of human T47D cells after 48 hrs; type: functional
[3] = tested on: SNU-398; assay: Induction of apoptosis in human SNU398 cells measured after 48 hrs by cell and caspase based HTS assay; type: functional; details: SNU-398, 48 h
[4] = tested on: HCT-116; assay: Induction of apoptosis in human HCT116 cells measured after 48 hrs by cell and caspase based HTS assay; type: functional; details: HCT-116, 48 h
[5] = tested on: T47D; assay: Induction of apoptosis in human T47D cells measured after 48 hrs by cell and caspase based HTS assay; type: functional
[6] = tested on: HCT-116; assay: Growth inhibition of human HCT116 cells after 48 hrs; type: functional; details: HCT-116, 48 h
[7] = Inhibition of tubulin polymerization
[8] = tested on: T47D; assay: Cell cycle arrest in human T47D cells by accumulation at G2/M phase after 24 to 48 hrs by flow cytometry; type: functional, cell-based
[9] = Inhibition of tubulin polymerization up to 50 uM

Structure (SMILES)	GI50 [1] [nM]	GI50 [2] [nM]	EC50 [3] [nM]	EC50 [4] [nM]	EC50 [5] [nM]	GI50 [6] [nM]	IC50 [7] [nM]	Activity [9]	Activity [8]
CC(=O)O[C@H]1C(=O)[C@@]2(C)[C@H]([C@H](OC(=O)c3ccccc3)[C@]3(O)C[C@H](OC(=O)[C@H](O)[C@@H](NC(=O)c4ccccc4)c4ccccc4)C(C)=C1C3(C)C)[C@]1(OC(C)=O)CO[C@@H]1C[C@@H]2O [PACLITAXEL]	61	26	9	18	37	60	–	–	–
Cc1cc2ccccc2n2c(C(=O)c3ccccc3)cc(C#N)c12	–	–	> 10000	> 10000	5800	–	–	–	–
N#Cc1cc(C(=O)c2ccccc2)n2c1ccc1cc(Cl)ccc12	–	–	> 10000	> 10000	> 10000	–	–	–	–
N#Cc1cc(C(=O)c2ccc(-n3ccnc3)cc2)n2c1ccc1ccccc12	–	–	–	–	–	–	< 5000	–	–
CN(C)CCOc1cccc2c1ccc1c(C#N)cc(C(=O)c3ccccc3)n12	–	–	4900	6000	2800	–	–	–	–
N#Cc1cc(C(=O)c2ccc(N)cc2)n2c1ccc1ccccc12	–	–	–	–	–	–	< 5000	–	–
Cc1cc2c(C#N)cc(C(=O)c3ccccc3)n2c2ccccc12	–	–	220	310	520	–	< 5000	–	–
CC[C@]1(O)C[C@@H]2CN(CCc3c([nH]c4ccccc34)[C@@](C(=O)OC)(c3cc4c(cc3OC)N(C)[C@H]3[C@@](O)(C(=O)OC)[C@H](OC(C)=O)[C@]5(CC)C=CCN6CC[C@]43[C@@H]65)C2)C1 [VINBLASTINE]	5	7	26	36	32	10	–	–	–
N#Cc1cc(C(=O)c2ccccc2)n2c1ccc1c([N+](=O)[O-])cccc12	–	–	> 10000	> 10000	> 10000	–	–	–	–
Cc1ccc2ccc3c(C#N)cc(C(=O)c4ccccc4)n3c2c1	–	–	5000	> 10000	280	–	–	–	–
N#Cc1cc(C(=O)c2ccccc2)n2c1ccc1c(OCCN3CCOCC3)cccc12	–	–	> 10000	> 10000	> 10000	–	–	–	–
Cc1ccc2c(ccc3c(C#N)cc(C(=O)c4ccccc4)n32)c1	–	–	> 10000	> 10000	> 10000	–	–	–	–

The next lines start with results.

GI50 [1] [nM]	GI50 [2] [nM]	EC50 [3] [nM]	EC50 [4] [nM]	EC50 [5] [nM]	GI50 [6] [nM]	IC50 [7] [nM]	Activity [9]	Structure (SMILES)	Activity [8]
–	–	> 10000	> 10000	62	–	–	–	N#Cc1cc(C(=O)c2ccc([N+](=O)[O-])cc2)n2c1ccc1c(Cl)cccc12	–
4800	18	1500	3700	80	8600	–	–	COc1cccc(C(=O)c2cc(C#N)c3ccc4c(Cl)cccc4n23)c1	–
–	–	> 10000	> 10000	150	–	–	–	N#Cc1cc(C(=O)c2cccc([N+](=O)[O-])c2)n2c1ccc1c(Cl)cccc12	–
–	–	1400	1900	290	–	–	–	N#Cc1cc(C(=O)c2ccc(-n3ccnc3)cc2)n2c1ccc1c(Cl)cccc12	–
–	–	> 10000	1900	83	–	–	inactive	N#Cc1cc(C(=O)c2ccccc2)n2c1ccc1c(Cl)cccc12	Active
–	–	5000	5600	210	–	–	–	N#Cc1cc(C(=O)c2cccc(N)c2)n2c1ccc1c(Cl)cccc12	–
–	–	> 10000	> 10000	53	–	–	inactive	N#Cc1cc(C(=O)c2ccc(F)cc2)n2c1ccc1c(Cl)cccc12	Active
2600	160	2600	2700	280	5900	–	inactive	N#Cc1cc(C(=O)c2cccc(O)c2)n2c1ccc1c(Cl)cccc12	Active
–	–	> 10000	> 10000	> 10000	–	–	–	N#Cc1cc(C(=O)c2ccccc2)n2c1ccc1c(O)cccc12	–
–	–	1400	3800	150	–	–	–	N#Cc1cc(C(=O)c2ccc(N)cc2)n2c1ccc1c(Cl)cccc12	–
